Source: US20230203031A1, “COMPOUNDS USEFUL FOR INHIBITING CDK7” (Eli Lilly and Company, priority 2020, published 2023)

Key:
[1] = system: panel of 468 human kinases; assay: DiscoverX KINOMEscan selectivity profiling, 468 kinase panel; format: binding; settings: CDK7 the only kinase with less than 35% control activity at 0.2 µM
Experimental: (§1) The purpose of the study is to generate an in vitro selectivity profile of the compounds of Example 8. To address selectivity, the compound of Example 8 is tested in a panel of 468 human kinases at DiscoverX Corporation using the KINOMEscan™ screening platform. KINOMEscan™ employs a novel and proprietary active site-directed competition binding assay to quantitatively measure interactions between test compounds and more than 450 human kinases and disease relevant mutant variants.
(§2) Compounds that bind the kinase active site and directly (sterically) or indirectly (allosterically) prevent kinase binding to an immobilized ligand, will reduce the amount of kinase captured on the solid support. […] Compound activity is monitored by measuring the amount of kinase captured in test versus control samples by using a qPCR method that detects the associated DNA label. Further information regarding the DiscoverX Corporation KINOMEscan™ screening platform can be found at http://www.discoverx.com.
(§3) Assays to monitor binding to a 468 kinase panel were conducted at DiscoverXⓇ Corporation (Fremont, CA). Example 8 is tested at 20 µM, 2 µM, and 0.2 µM final concentrations. Kinases are tagged with DNA for qPCR detection. […] The kinase concentration in the eluates is measured by qPCR. […]

CDK7 = molecular target: T1, CDK7 (Homo sapiens, UniProt P50613); assay: DiscoverX KINOMEscan competition binding, CDK7; settings: 0.2 µM compound
T1 construct: purchased DiscoverX Corporation (KINOMEscan service)
T1 sequence (P50613 whole entry): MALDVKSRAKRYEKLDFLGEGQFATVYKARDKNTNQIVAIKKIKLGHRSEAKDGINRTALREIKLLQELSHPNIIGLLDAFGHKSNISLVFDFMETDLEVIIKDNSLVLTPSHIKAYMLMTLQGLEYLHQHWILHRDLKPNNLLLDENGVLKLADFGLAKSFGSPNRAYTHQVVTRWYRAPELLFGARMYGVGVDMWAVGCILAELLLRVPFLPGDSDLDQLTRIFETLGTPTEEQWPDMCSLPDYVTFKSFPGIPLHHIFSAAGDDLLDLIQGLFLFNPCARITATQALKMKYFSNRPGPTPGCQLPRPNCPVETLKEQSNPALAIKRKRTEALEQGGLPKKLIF
Experimental: as §1, §2, §3

A2780 = assay: Cell proliferation assay (CELL TITER GLO), A2780; format: cell-based; settings: Homo sapiens, 168 h; A2780 ovarian cancer, seven days after compound addition
Experimental: Cell lines are plated at the density 5000 cells per well in 100 µL per well growth medium into a white 96-well cell culture plate. See Table 1 for cell line and culture medium information. Plates are incubated at 37° C. and 5% CO2. The following day, a serial dilution of the test compound is prepared by diluting the compound 1:3 in DMSO for 10 points. The DMSO plate is 1000X the final concentration. In addition to the CDK7 inhibitor, a DMSO alone column is included as a maximum growth control and 10 µM staurosporine final column is included as a maximum growth inhibition control. A 10X dilution plate is then prepared by adding 2 µL per well from the 1000X DMSO plate to 198 µL per well of OMEM (Life Technologies, Carlsbad, CA, cat#31985-070). Cells are treated with indicated compound by adding 11 µL per well from the 10X OMEM plate to the cell plate containing 100 µL per well growth medium for a 1X final concentration. Plates are placed back into the incubator at 37° C. and 5% CO2. Six or seven days after compound addition, for HCC1806 or A2780 cells respectively, plates are removed from the incubator and allowed to equilibrate to RT. […] After 15 minute incubation on shaker, luminescence is read, 1 second per well, using a Wallac VICTOR2™. […]

[2] = system: HCC1806 xenograft tumor model; assay: Xenograft tumor model; format: in vivo, female athymic nude mice; settings: QDx28, HCC1806 (KMT2C)
Experimental: The purpose of this assay is to measure reduction in tumor volume in response to the compound of Example 1. To evaluate in vivo efficacy of a test compound, multiple xenograft tumor models are utilized. Briefly, 2.5 × 10^6 tumor cells in a 1:1 MATRIGEL® mix (0.2 mL total volume) are injected subcutaneously into the female athymic nude mice (Envigo, Harlan Laboratories). After allowing tumors to reach a desired size of ~300-500 mm^3, animals are randomized into groups of 5 for efficacy studies. Test compound is administered via oral gavage (PO) at indicated doses and regimens. Tumor growth and body weight are monitored over time to evaluate efficacy and signs of toxicity.
Test compound is formulated in 1% hydroxyethylcellulose, 0.25% polysorbate 80, 0.05% antifoam in purified water (HEC) and administered by oral gavage (final volume 0.2 mL) at the doses indicated in Table 2. A test compound is formulated on a weekly basis and stored at 4° C. Vehicles are administered to the control groups according the schedules used above using a volume of 0.2 mL per dose. Mice are dosed via oral gavage and tumor samples are collected at termination and stored at -80° C.
Tumor size and body weight are recorded and analyzed bi-weekly.
Delta T/C% is calculated when the endpoint tumor volume in a treated group is at or above baseline tumor volume. The formula is 100×(T-T0)/(C-C0). […]

Compound	selectivity against the 468 protein kinases panel [1]	remaining binding at 0.2 µM (CDK7; read-out: % control activity against CDK7)	inhibition at 0.2 µM (CDK7; read-out: inhibition against CDK7)	IC50 (A2780)	Avg. ΔT/C ([2]; 10 mg/kg PO)	Avg. ΔT/C ([2]; 20 mg/kg PO)
C=CC(=O)N1CCO[C@H](CN2CCC(Nc3cc(C(F)(F)F)cn4c(C(C)C)cnc34)CC2)C1 [Example 8, 1-[(2R)-2-[[4-[[3-isopropyl-6-(trifluoromethyl)imidazo[1,2-a]pyridin-8-yl]amino]-1-piperidyl]methyl]morpholin-4-yl]prop-2-en-1-one]	excellent selectivity	~4%	~96%	–	–	–
C=CC(=O)N1CCO[C@H](CN2CCC(Nc3cc(C(C)F)cn4c(C(C)C)cnc34)CC2)C1 (single isomer, unassigned) [Example 1]	–	–	–	0.0228 µM	16.5%	-38.0%
